pIC50: −log10 of the molar value. Counter-ions that a name gives are not always drawn.
The compounds below were run against Photinus pyralis (firefly) luciferase (Photinus pyralis, UniProt P08659) (assay: biochemical). Conditions: not given.
Type: biochemical

Sequence of Photinus pyralis (firefly) luciferase (P08659 whole entry): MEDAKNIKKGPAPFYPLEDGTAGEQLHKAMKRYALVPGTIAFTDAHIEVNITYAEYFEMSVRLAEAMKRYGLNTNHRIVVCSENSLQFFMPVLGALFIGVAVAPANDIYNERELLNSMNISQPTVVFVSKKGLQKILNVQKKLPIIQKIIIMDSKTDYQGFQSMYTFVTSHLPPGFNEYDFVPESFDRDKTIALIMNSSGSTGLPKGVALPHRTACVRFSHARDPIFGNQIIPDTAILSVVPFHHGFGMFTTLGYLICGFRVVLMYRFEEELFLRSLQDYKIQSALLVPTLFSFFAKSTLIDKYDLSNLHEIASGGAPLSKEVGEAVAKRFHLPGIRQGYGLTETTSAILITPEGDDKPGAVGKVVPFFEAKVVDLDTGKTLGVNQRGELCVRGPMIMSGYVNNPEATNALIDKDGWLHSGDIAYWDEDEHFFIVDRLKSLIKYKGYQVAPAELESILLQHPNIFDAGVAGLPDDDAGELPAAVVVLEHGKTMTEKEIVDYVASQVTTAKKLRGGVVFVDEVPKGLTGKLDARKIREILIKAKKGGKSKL

Row | SMILES | Luciferase IC50 (half-maximal inhibitory concentration) | Luciferase IC50
1 | COc1c2ccoc2cc2oc(=O)ccc12 [5-Methoxypsoralen] | Inactive | –
2 | CCN(CCCc1ccccc1)CCCc1ccccc1 [Alverine citrate] | – | Inactive
3 | Clc1ccc(C2(Cn3cncn3)OCCO2)c(Cl)c1 [Azaconazole] | Inactive | –
4 | CCOP(=S)(OCC)SCn1nnc2ccccc2c1=O [Azinphos-ethyl] | Inactive | –
5 | C=CCOC(=O)C(C)(C)OC(=O)c1cc(-n2c(=O)cc(C(F)(F)F)n(C)c2=O)ccc1Cl [Butafenacil] | Inactive | –
6 | O=S(=O)(Oc1ccc(Cl)cc1)c1ccc(Cl)cc1 [Chlorfenson] | Inactive | –
7 | CCOC(=O)C(O)(c1ccc(Cl)cc1)c1ccc(Cl)cc1 [Chlorobenzilate] | Inactive | –
8 | N#Cc1c(Cl)c(Cl)c(Cl)c(C#N)c1Cl [Chlorothalonil] | Inactive | –

Each compound was assayed against T1, human CYP1A2 (Homo sapiens, UniProt P05177) (assay: not given). Conditions: human.
T1 sequence (P05177 1-516): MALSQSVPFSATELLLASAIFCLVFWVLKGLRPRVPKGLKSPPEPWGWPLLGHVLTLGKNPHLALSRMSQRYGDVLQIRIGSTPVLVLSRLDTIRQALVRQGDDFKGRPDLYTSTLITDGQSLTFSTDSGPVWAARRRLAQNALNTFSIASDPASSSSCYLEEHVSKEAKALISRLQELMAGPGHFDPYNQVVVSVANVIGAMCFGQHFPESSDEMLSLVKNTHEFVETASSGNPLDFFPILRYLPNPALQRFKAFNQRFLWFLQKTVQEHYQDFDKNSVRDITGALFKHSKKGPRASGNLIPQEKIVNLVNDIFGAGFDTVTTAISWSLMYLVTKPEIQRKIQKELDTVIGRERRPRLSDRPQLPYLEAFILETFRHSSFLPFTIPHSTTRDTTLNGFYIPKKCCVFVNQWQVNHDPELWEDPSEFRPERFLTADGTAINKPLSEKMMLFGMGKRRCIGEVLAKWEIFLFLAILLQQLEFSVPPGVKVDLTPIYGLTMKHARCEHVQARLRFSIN

Row | SMILES | CYP1A2 Efficacy (in parenthesis)
9 | COc1c2ccoc2cc2oc(=O)ccc12 [5-Methoxypsoralen] | 0.28 ± 0.03 (-96 ± 3) %
10 | Clc1ccc(C2(Cn3cncn3)OCCO2)c(Cl)c1 [Azaconazole] | 33.14 ± 4.22 (-89 ± 9) %
11 | CCOP(=S)(OCC)SCn1nnc2ccccc2c1=O [Azinphos-ethyl] | 28.65 ± 6 (-88 ± 5) %
12 | C=CCOC(=O)C(C)(C)OC(=O)c1cc(-n2c(=O)cc(C(F)(F)F)n(C)c2=O)ccc1Cl [Butafenacil] | 35.06 ± 4.03 (-48 ± 4) %
13 | O=S(=O)(Oc1ccc(Cl)cc1)c1ccc(Cl)cc1 [Chlorfenson] | 3.21 ± 1.48 (-95 ± 14) %
14 | N#Cc1c(Cl)c(Cl)c(Cl)c(C#N)c1Cl [Chlorothalonil] | 1.03 ± 0.19 (-97 ± 4) %

The compounds below were run against T2, human CYP2C9 (Homo sapiens, UniProt P11712) (assay: not given). Conditions: not given.
T2 sequence (P11712 whole entry): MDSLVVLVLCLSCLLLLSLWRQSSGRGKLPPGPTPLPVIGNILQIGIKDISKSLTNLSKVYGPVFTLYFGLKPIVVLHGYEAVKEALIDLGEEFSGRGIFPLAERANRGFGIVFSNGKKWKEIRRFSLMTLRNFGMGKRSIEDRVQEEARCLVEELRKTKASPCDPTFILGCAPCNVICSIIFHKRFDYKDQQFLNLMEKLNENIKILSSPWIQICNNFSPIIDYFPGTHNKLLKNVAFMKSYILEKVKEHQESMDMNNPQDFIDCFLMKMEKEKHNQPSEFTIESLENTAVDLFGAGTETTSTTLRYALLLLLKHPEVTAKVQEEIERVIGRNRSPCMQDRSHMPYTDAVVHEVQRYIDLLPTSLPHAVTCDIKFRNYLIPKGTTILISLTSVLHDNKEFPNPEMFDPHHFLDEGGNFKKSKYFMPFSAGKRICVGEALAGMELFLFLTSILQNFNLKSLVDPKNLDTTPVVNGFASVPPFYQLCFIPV

Row | SMILES | CYP2C9 IC50
15 | CCN(CCCc1ccccc1)CCCc1ccccc1 [Alverine citrate] | Inactive

Same assay, conditions: human

Row | SMILES | CYP2C9 Efficacy (in parenthesis)
16 | COc1c2ccoc2cc2oc(=O)ccc12 [5-Methoxypsoralen] | 2.43 ± 0.16 (-105 ± 2) %
17 | Clc1ccc(C2(Cn3cncn3)OCCO2)c(Cl)c1 [Azaconazole] | 15.38 ± 2.12 (-103 ± 8) %
18 | CCOP(=S)(OCC)SCn1nnc2ccccc2c1=O [Azinphos-ethyl] | 0.57 ± 0.11 (-97 ± 0) %
19 | C=CCOC(=O)C(C)(C)OC(=O)c1cc(-n2c(=O)cc(C(F)(F)F)n(C)c2=O)ccc1Cl [Butafenacil] | 23.68 ± 7.01 (-109 ± 17) %
20 | O=S(=O)(Oc1ccc(Cl)cc1)c1ccc(Cl)cc1 [Chlorfenson] | 18.81 ± 7.04 (-92 ± 16) %
21 | N#Cc1c(Cl)c(Cl)c(Cl)c(C#N)c1Cl [Chlorothalonil] | 6.61 ± 1.87 (-85 ± 10) %

The compounds below were run against T3, human CYP2C19 (Homo sapiens, UniProt P33261) (assay: not given). Conditions: human.
T3 sequence (P33261 whole entry): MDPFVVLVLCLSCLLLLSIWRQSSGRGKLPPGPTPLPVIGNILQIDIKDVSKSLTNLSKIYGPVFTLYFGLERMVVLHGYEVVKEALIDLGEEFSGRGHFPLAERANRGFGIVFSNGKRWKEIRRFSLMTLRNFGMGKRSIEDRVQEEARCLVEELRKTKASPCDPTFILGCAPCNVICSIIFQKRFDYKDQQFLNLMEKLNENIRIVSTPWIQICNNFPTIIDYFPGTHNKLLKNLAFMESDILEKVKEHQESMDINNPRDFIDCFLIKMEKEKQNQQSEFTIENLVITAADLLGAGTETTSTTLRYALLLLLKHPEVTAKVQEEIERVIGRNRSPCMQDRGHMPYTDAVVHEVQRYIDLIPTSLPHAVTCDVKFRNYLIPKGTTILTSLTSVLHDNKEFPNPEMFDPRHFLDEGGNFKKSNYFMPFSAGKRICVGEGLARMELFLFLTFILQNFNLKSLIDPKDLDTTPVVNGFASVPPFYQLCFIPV

Row | SMILES | CYP2C19 Efficacy (in parenthesis)
22 | COc1c2ccoc2cc2oc(=O)ccc12 [5-Methoxypsoralen] | 10.35 ± 3.33 (-151 ± 18) %
23 | Clc1ccc(C2(Cn3cncn3)OCCO2)c(Cl)c1 [Azaconazole] | 2.14 ± 0.96 (-148 ± 8) %
24 | CCOP(=S)(OCC)SCn1nnc2ccccc2c1=O [Azinphos-ethyl] | 0.32 ± 0.06 (-141 ± 5) %
25 | C=CCOC(=O)C(C)(C)OC(=O)c1cc(-n2c(=O)cc(C(F)(F)F)n(C)c2=O)ccc1Cl [Butafenacil] | 50.02 ± 19.28 (-89 ± 23) %
26 | O=S(=O)(Oc1ccc(Cl)cc1)c1ccc(Cl)cc1 [Chlorfenson] | 0.14 ± 0.02 (-95 ± 43) %
27 | N#Cc1c(Cl)c(Cl)c(Cl)c(C#N)c1Cl [Chlorothalonil] | 38.42 ± 34.42 (-114 ± 10) %

The compounds below were run against T4, human CYP2D6 (Homo sapiens, UniProt P10635) (assay: not given). Conditions: not given.
T4 sequence (P10635 whole entry): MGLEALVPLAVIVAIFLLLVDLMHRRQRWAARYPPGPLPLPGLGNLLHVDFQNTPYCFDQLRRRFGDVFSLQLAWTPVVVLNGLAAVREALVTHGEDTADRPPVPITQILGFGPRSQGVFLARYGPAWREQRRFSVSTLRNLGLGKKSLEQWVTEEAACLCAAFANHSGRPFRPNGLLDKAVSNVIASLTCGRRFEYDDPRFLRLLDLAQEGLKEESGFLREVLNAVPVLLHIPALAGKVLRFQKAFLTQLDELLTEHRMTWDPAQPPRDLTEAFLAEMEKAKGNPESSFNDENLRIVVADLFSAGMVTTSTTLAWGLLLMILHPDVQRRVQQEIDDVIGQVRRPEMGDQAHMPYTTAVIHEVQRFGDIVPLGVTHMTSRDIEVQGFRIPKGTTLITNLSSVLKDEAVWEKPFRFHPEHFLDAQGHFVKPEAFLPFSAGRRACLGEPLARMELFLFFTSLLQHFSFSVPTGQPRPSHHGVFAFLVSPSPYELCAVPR

Row | SMILES | CYP2D6 AC50 (half-maximal activity concentration)
28 | CCOC(=O)C(O)(c1ccc(Cl)cc1)c1ccc(Cl)cc1 [Chlorobenzilate] | Inconclusive inhibitor

Same assay, conditions: human

Row | SMILES | CYP2D6 Efficacy (in parenthesis)
29 | COc1c2ccoc2cc2oc(=O)ccc12 [5-Methoxypsoralen] | 0.1 ± 0.02 (11 ± 2) %
30 | Clc1ccc(C2(Cn3cncn3)OCCO2)c(Cl)c1 [Azaconazole] | 65.83 ± 4.46 (-77 ± 14) %
31 | CCOP(=S)(OCC)SCn1nnc2ccccc2c1=O [Azinphos-ethyl] | 35.57 ± 0 (-87 ± 6) %
32 | C=CCOC(=O)C(C)(C)OC(=O)c1cc(-n2c(=O)cc(C(F)(F)F)n(C)c2=O)ccc1Cl [Butafenacil] | 26.96 ± 4.59 (-70 ± 7) %
33 | O=S(=O)(Oc1ccc(Cl)cc1)c1ccc(Cl)cc1 [Chlorfenson] | 21.56 ± 9.06 (-95 ± 15) %
34 | N#Cc1c(Cl)c(Cl)c(Cl)c(C#N)c1Cl [Chlorothalonil] | 34.91 ± 0 (-58 ± 3) %

The compounds below were run against T5, CYP3A4 (Homo sapiens, UniProt P08684) (assay: not given). Conditions: not given.
T5 sequence (P08684 whole entry): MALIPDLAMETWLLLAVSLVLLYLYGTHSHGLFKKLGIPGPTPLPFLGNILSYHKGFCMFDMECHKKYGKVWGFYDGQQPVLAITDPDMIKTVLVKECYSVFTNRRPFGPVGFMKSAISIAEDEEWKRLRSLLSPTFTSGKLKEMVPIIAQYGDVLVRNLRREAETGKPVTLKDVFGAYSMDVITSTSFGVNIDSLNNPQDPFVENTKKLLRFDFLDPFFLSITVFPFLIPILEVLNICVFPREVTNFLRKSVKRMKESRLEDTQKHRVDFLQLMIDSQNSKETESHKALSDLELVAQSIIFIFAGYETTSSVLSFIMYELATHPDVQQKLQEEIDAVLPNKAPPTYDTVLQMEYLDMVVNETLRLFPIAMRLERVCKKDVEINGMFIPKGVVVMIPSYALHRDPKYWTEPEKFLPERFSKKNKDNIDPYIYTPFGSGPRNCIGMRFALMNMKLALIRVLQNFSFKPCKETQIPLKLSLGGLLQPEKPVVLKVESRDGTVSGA

Row | SMILES | CYP3A4 Efficacy (in parenthesis) | CYP3A4 IC50 | CYP3A4 IC50 (half-maximal inhibitory concentration)
35 | COc1c2ccoc2cc2oc(=O)ccc12 [5-Methoxypsoralen] | 9.16 ± 1.5 (-71 ± 2) % | – | –
36 | CCN(CCCc1ccccc1)CCCc1ccccc1 [Alverine citrate] | – | 14.43 ± 1.84 (65 ± 11) µM | –
37 | Clc1ccc(C2(Cn3cncn3)OCCO2)c(Cl)c1 [Azaconazole] | 0.48 ± 0.03 (-62 ± 7) % | – | –
38 | CCOP(=S)(OCC)SCn1nnc2ccccc2c1=O [Azinphos-ethyl] | 1.87 ± 0.34 (-77 ± 3) % | – | –
39 | C=CCOC(=O)C(C)(C)OC(=O)c1cc(-n2c(=O)cc(C(F)(F)F)n(C)c2=O)ccc1Cl [Butafenacil] | 0.51 ± 0.14 (-90 ± 4) % | – | –
40 | O=S(=O)(Oc1ccc(Cl)cc1)c1ccc(Cl)cc1 [Chlorfenson] | 6.8 ± 1.64 (41 ± 6) % | – | –
41 | CCOC(=O)C(O)(c1ccc(Cl)cc1)c1ccc(Cl)cc1 [Chlorobenzilate] | – | – | 9.23 ± 2.97 (118 ± 20) µM
42 | N#Cc1c(Cl)c(Cl)c(Cl)c(C#N)c1Cl [Chlorothalonil] | 1.11 ± 0.13 (-78 ± 2) % | – | –

These compounds were tested against T1, human CYP1A2 (assay: biochemical). Conditions: CYP1A2 AC50 (half-maximal activity concentration).

Row | SMILES | AC50
43 | CCN(CCCc1ccccc1)CCCc1ccccc1 [Alverine citrate] | 9.92 µM
44 | CCOC(=O)C(O)(c1ccc(Cl)cc1)c1ccc(Cl)cc1 [Chlorobenzilate] | 44.5 µM

Same assay, conditions: CYP1A2 IC50

Row | SMILES | pIC50
45 | CCN(CCCc1ccccc1)CCCc1ccccc1 [Alverine citrate] | 5.00

Same assay, conditions: CYP1A2 IC50 (half-maximal inhibitory concentration)

Row | SMILES | pIC50
46 | COc1c2ccoc2cc2oc(=O)ccc12 [5-Methoxypsoralen] | 6.55
47 | Clc1ccc(C2(Cn3cncn3)OCCO2)c(Cl)c1 [Azaconazole] | 4.48
48 | CCOP(=S)(OCC)SCn1nnc2ccccc2c1=O [Azinphos-ethyl] | 4.54
49 | C=CCOC(=O)C(C)(C)OC(=O)c1cc(-n2c(=O)cc(C(F)(F)F)n(C)c2=O)ccc1Cl [Butafenacil] | 4.46
50 | O=S(=O)(Oc1ccc(Cl)cc1)c1ccc(Cl)cc1 [Chlorfenson] | 5.49
51 | CCOC(=O)C(O)(c1ccc(Cl)cc1)c1ccc(Cl)cc1 [Chlorobenzilate] | 4.35
52 | N#Cc1c(Cl)c(Cl)c(Cl)c(C#N)c1Cl [Chlorothalonil] | 5.99

Each compound was assayed against T2, human CYP2C9 (assay: biochemical). Conditions: not given.

Row | SMILES | pIC50
53 | CCOP(=S)(OCC)SCn1nnc2ccccc2c1=O [Azinphos-ethyl] | 6.24
54 | CCOC(=O)C(O)(c1ccc(Cl)cc1)c1ccc(Cl)cc1 [Chlorobenzilate] | 5.11

Same assay, conditions: CYP2C9 AC50 (half-maximal activity concentration)

Row | SMILES | AC50
55 | CCOC(=O)C(O)(c1ccc(Cl)cc1)c1ccc(Cl)cc1 [Chlorobenzilate] | 7.68 µM

Same assay, conditions: CYP2C9 IC50 (half-maximal inhibitory concentration)

Row | SMILES | pIC50
56 | COc1c2ccoc2cc2oc(=O)ccc12 [5-Methoxypsoralen] | 5.61
57 | Clc1ccc(C2(Cn3cncn3)OCCO2)c(Cl)c1 [Azaconazole] | 4.81
58 | C=CCOC(=O)C(C)(C)OC(=O)c1cc(-n2c(=O)cc(C(F)(F)F)n(C)c2=O)ccc1Cl [Butafenacil] | 4.63
59 | O=S(=O)(Oc1ccc(Cl)cc1)c1ccc(Cl)cc1 [Chlorfenson] | 4.73
60 | N#Cc1c(Cl)c(Cl)c(Cl)c(C#N)c1Cl [Chlorothalonil] | 5.18

The compounds below were run against T3, human CYP2C19 (assay: biochemical). Conditions: CYP2C19 AC50 (half-maximal activity concentration).

Row | SMILES | AC50
61 | CCN(CCCc1ccccc1)CCCc1ccccc1 [Alverine citrate] | 7.04 µM
62 | CCOC(=O)C(O)(c1ccc(Cl)cc1)c1ccc(Cl)cc1 [Chlorobenzilate] | 0.39 µM

Same assay, conditions: CYP2C19 IC50

Row | SMILES | pIC50
63 | CCN(CCCc1ccccc1)CCCc1ccccc1 [Alverine citrate] | 5.15

Same assay, conditions: CYP2C19 IC50 (half-maximal inhibitory concentration)

Row | SMILES | pIC50
64 | COc1c2ccoc2cc2oc(=O)ccc12 [5-Methoxypsoralen] | 4.99
65 | Clc1ccc(C2(Cn3cncn3)OCCO2)c(Cl)c1 [Azaconazole] | 5.67
66 | CCOP(=S)(OCC)SCn1nnc2ccccc2c1=O [Azinphos-ethyl] | 6.49
67 | C=CCOC(=O)C(C)(C)OC(=O)c1cc(-n2c(=O)cc(C(F)(F)F)n(C)c2=O)ccc1Cl [Butafenacil] | 4.30
68 | O=S(=O)(Oc1ccc(Cl)cc1)c1ccc(Cl)cc1 [Chlorfenson] | 6.85
69 | CCOC(=O)C(O)(c1ccc(Cl)cc1)c1ccc(Cl)cc1 [Chlorobenzilate] | 6.41
70 | N#Cc1c(Cl)c(Cl)c(Cl)c(C#N)c1Cl [Chlorothalonil] | 4.42

The compounds below were run against T4, human CYP2D6 (assay: biochemical). Conditions: not given.

Row | SMILES | pIC50
71 | CCOP(=S)(OCC)SCn1nnc2ccccc2c1=O [Azinphos-ethyl] | 4.45
72 | CCOC(=O)C(O)(c1ccc(Cl)cc1)c1ccc(Cl)cc1 [Chlorobenzilate] | 4.34

Same assay, conditions: CYP2D6 AC50 (half-maximal activity concentration)

Row | SMILES | AC50
73 | CCN(CCCc1ccccc1)CCCc1ccccc1 [Alverine citrate] | 0.87 µM

Same assay, conditions: CYP2D6 IC50

Row | SMILES | pIC50
74 | CCN(CCCc1ccccc1)CCCc1ccccc1 [Alverine citrate] | 6.06

Same assay, conditions: CYP2D6 IC50 (half-maximal inhibitory concentration)

Row | SMILES | pIC50
75 | COc1c2ccoc2cc2oc(=O)ccc12 [5-Methoxypsoralen] | 7.00
76 | Clc1ccc(C2(Cn3cncn3)OCCO2)c(Cl)c1 [Azaconazole] | 4.18
77 | C=CCOC(=O)C(C)(C)OC(=O)c1cc(-n2c(=O)cc(C(F)(F)F)n(C)c2=O)ccc1Cl [Butafenacil] | 4.57
78 | O=S(=O)(Oc1ccc(Cl)cc1)c1ccc(Cl)cc1 [Chlorfenson] | 4.67
79 | N#Cc1c(Cl)c(Cl)c(Cl)c(C#N)c1Cl [Chlorothalonil] | 4.46

These compounds were tested against T5, CYP3A4 (assay: biochemical). Conditions: CYP3A4 AC50 (half-maximal activity concentration).

Row | SMILES | AC50
80 | CCN(CCCc1ccccc1)CCCc1ccccc1 [Alverine citrate] | 14.4 µM
81 | CCOC(=O)C(O)(c1ccc(Cl)cc1)c1ccc(Cl)cc1 [Chlorobenzilate] | 9.23 µM

Same assay, conditions: CYP3A4 IC50 (half-maximal inhibitory concentration)

Row | SMILES | pIC50
82 | COc1c2ccoc2cc2oc(=O)ccc12 [5-Methoxypsoralen] | 5.04
83 | Clc1ccc(C2(Cn3cncn3)OCCO2)c(Cl)c1 [Azaconazole] | 6.32
84 | CCOP(=S)(OCC)SCn1nnc2ccccc2c1=O [Azinphos-ethyl] | 5.73
85 | C=CCOC(=O)C(C)(C)OC(=O)c1cc(-n2c(=O)cc(C(F)(F)F)n(C)c2=O)ccc1Cl [Butafenacil] | 6.29
86 | O=S(=O)(Oc1ccc(Cl)cc1)c1ccc(Cl)cc1 [Chlorfenson] | 5.17
87 | N#Cc1c(Cl)c(Cl)c(Cl)c(C#N)c1Cl [Chlorothalonil] | 5.95

From article PMC12155096 (International Journal of Molecular Sciences, 2025)
